Biological target: T1, BTK (Homo sapiens, UniProt Q06187)
T1 construct: endogenous in cells; host or cells: Mino cells
Experiment: BTK degradation activity test in Mino cells
Assay type: cell-based
Details: 16 h incubation, Western blot or Elisa
Protocol: Mino cell line cells were seeded at 500,000 to 1,000,000 cells/well in a 6-well plate. The compounds were diluted to different concentrations and added to the plate, and after 16 h of incubation, cells were harvested. After lysing the cells, the total protein concentration in each well was determined using the BCA method. The amount of BTK was determined using Western blot or Elisa method. The amount of undegraded BTK protein at each drug concentration was compared with the amount of BTK protein in the blank control group to calculate the degradation rate. The degradation curve was drawn based on the degradation rate at each concentration, and the half degradation concentration (DC50) was calculated by fitting.

T1 sequence (Q06187 whole entry): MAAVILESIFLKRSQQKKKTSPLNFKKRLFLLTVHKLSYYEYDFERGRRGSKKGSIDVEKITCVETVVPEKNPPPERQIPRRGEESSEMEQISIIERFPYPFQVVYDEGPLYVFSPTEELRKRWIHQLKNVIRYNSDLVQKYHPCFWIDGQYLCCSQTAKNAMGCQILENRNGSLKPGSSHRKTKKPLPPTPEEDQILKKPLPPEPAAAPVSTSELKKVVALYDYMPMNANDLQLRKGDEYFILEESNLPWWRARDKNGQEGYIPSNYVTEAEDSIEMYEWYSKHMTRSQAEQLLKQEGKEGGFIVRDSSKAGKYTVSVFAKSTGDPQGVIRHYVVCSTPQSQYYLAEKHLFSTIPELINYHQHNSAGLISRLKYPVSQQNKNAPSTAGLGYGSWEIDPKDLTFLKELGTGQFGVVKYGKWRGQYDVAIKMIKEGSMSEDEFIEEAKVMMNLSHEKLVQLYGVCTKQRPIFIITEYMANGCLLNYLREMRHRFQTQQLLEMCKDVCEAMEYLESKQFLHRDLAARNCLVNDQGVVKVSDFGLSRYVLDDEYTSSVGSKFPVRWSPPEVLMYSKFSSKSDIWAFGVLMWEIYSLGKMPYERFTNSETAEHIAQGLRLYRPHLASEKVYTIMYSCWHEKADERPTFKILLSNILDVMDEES

SMILES	DC50 [nM]
CC1(c2ccc(Nc3nc(N4CCCC(N5CCN(C6CCCC6)C5=O)C4)cnc3C(N)=O)cc2)CCN(CC2CCN(c3ccc4c(c3)C(=O)N(C3CCC(=O)NC3=O)C4=O)C2)CC1 (stereo not drawn) [Compound 034, 5-(3-(3-cyclopentyl-2-oxoimidazolin-1-yl)piperidin-1-yl)-3-((4-(1-((1-(2-(2,6-dioxopiperidin-3-yl)-1,3-dioxoisoindolin-5-yl)pyrrolidin-3-yl)methyl)-4-methylpiperidin-4-yl)phenyl)amino)pyrazin-2-carboxamide]	< 1
CN1CCN(C2CCCN(c3nnc(C(N)=O)c(Nc4ccc(C5(C)CCN(CC6CCN(c7ccc8c(c7)C(=O)N(C7CCC(=O)NC7=O)C8=O)C6)CC5)cc4)n3)C2)C1=O (stereo not drawn) [Compound 035, 5-((4-(1-((1-(2-(2,6-dioxopiperidin-3-yl)-1,3-dioxoisoindolin-5-yl)pyrrolidin-3-yl)methyl)-4-methylpiperidin-4-yl)phenyl)amino)-3-(3-(3-methyl-2-oxoimidazolin-1-yl)piperidin-1-yl)-1,2,4-triazin-6-carboxamide]	< 1
CN1CCN(C2CCCN(c3ncc(C(N)=O)c(Nc4ccc(C5(C)CCN(CC6CCN(c7ccc8c(c7)C(=O)N(C7CCC(=O)NC7=O)C8=O)C6)CC5)cc4)n3)C2)C1=O (stereo not drawn) [Compound 036, 4-((4-(1-((1-(2-(2,6-dioxopiperidin-3-yl)-1,3-dioxoisoindolin-5-yl)pyrrolidin-3-yl)methyl)-4-methylpiperidin-4-yl)phenyl)amino)-2-(3-(3-methyl-2-oxoimidazolin-1-yl)piperidin-1-yl)pyrimidin-5-carboxamide]	< 1
CN1CCN(C2CCCN(c3nc(Nc4ccc(C5(C)CCN(CC6CCN(c7ccc8c(c7)C(=O)N(C7CCC(=O)NC7=O)C8=O)C6)CC5)cc4)c(C(N)=O)cc3F)C2)C1=O (stereo not drawn) [Compound 037, 2-((4-(1-((1-(2-(2,6-dioxopiperidin-3-yl)-1,3-dioxoisoindolin-5-yl)pyrrolidin-3-yl)methyl)-4-methylpiperidin-4-yl)phenyl)amino)-5-fluoro-6-(3-(3-methyl-2-oxoimidazolin-1-yl)piperidin-1-yl)nicotinamide]	> 1
COc1cc(C(N)=O)c(Nc2ccc(C3(C)CCN(CC4CCN(c5ccc6c(c5)C(=O)N(C5CCC(=O)NC5=O)C6=O)C4)CC3)cc2)nc1N1CCCC(N2CCN(C)C2=O)C1 (stereo not drawn) [Compound 038, 2-((4-(1-((1-(2-(2,6-dioxopiperidin-3-yl)-1,3-dioxoisoindolin-5-yl)pyrrolidin-3-yl)methyl)-4-methylpiperidin-4-yl)phenyl)amino)-5-methoxy-6-(3-(3-methyl-2-oxoimidazolin-1-yl)piperidin-1-yl)nicotinamide]	< 1
NC(=O)c1ncc(N2CCCC(N3CCN(C4CCCC4)C3=O)C2)nc1Nc1ccc(C2CCN(CC3CCN(c4ccc5c(c4)C(=O)N(C4CCC(=O)NC4=O)C5=O)C3)CC2)cc1 (stereo not drawn) [Compound 039, 5-(3-(3-cyclopentyl-2-oxoimidazolin-1-yl)piperidin-1-yl)-3-((4-(1-((1-(2-(2,6-dioxopiperidin-3-yl)-1,3-dioxoisoindolin-5-yl)pyrrolidin-3-yl)methyl)piperidin-4-yl)phenyl)amino)pyrazin-2-carboxamide]	< 1
NC(=O)c1ncc(N2CCCC(N3CCN(C4CCCC4)C3=O)C2)nc1Nc1ccc(C2(F)CCN(CC3CCN(c4ccc5c(c4)C(=O)N(C4CCC(=O)NC4=O)C5=O)C3)CC2)cc1 (stereo not drawn) [Compound 040, 5-(3-(3-cyclopentyl-2-oxoimidazolin-1-yl)piperidin-1-yl)-3-((4-(1-((1-(2-(2,6-dioxopiperidin-3-yl)-1,3-dioxoisoindolin-5-yl)pyrrolidin-3-yl)methyl)-4-fluoropiperidin-4-yl)phenyl)amino)pyrazin-2-carboxamide]	< 1
NC(=O)c1ncc(N2CCCC(N3CCN(C4CCCC4)C3=O)C2)nc1Nc1ccc(C2CCN(CC3CCN(c4ccc5c(c4)C(=O)N(C4CCC(=O)NC4=O)C5=O)C3)CC2)cc1F (stereo not drawn) [Compound 041, 5-(3-(3-cyclopentyl-2-oxoimidazolin-1-yl)piperidin-1-yl)-3-((4-(1-((1-(2-(2,6-dioxopiperidin-3-yl)-1,3-dioxoisoindolin-5-yl)pyrrolidin-3-yl)methyl)piperidin-4-yl)-2-fluorophenyl)amino)pyrazin-2-carboxamide]	< 1
CN1C(=O)N(C2CCCN(c3cnc(C(N)=O)c(Nc4ccc(C5CCN(CC6CCN(c7ccc8c(c7)C(=O)N(C7CCC(=O)NC7=O)C8=O)C6)CC5)cc4)n3)C2)CC12CC2 (stereo not drawn) [Compound 044, 3-((4-(1-((1-(2-(2,6-dioxopiperidin-3-yl)-1,3-dioxoisoindolin-5-yl)pyrrolidin-3-yl)methyl)piperidin-4-yl)phenyl)amino)-5-(3-(4-methyl-5-oxo-4,6-diazaspiro[2.4]cycloheptan-6-yl)piperidin-1-yl)pyrazin-2-carboxamide]	< 1
NC(=O)c1ncc(N2CCCC(N3CC4CCCCN4C3=O)C2)nc1Nc1ccc(C2CCN(CC3CCN(c4ccc5c(c4)C(=O)N(C4CCC(=O)NC4=O)C5=O)C3)CC2)cc1 (stereo not drawn) [Compound 045, 3-((4-(1-((1-(2-(2,6-dioxopiperidin-3-yl)-1,3-dioxoisoindolin-5-yl)pyrrolidin-3-yl)methyl)piperidin-4-yl)phenyl)amino)-5-(3-(3-oxohexahydroimidazo[1,5-a]pyridin-2(3H)-yl)piperidin-1-yl)pyrazin-2-carboxamide]	< 1
CN1CCN(C2CC3CC2N(c2cnc(C(N)=O)c(Nc4ccc(C5CCN(C6CN(c7ccc8c(c7)C(=O)N(C7CCC(=O)NC7=O)C8=O)C6)CC5)cc4)n2)C3)C1=O (stereo not drawn) [Compound 046, 3-((4-(1-(1-(2-(2,6-dioxopiperidin-3-yl)-1,3-dioxoisoindolin-5-yl)azetidin-3-yl)piperidin-4-yl)phenyl)amino)-5-(-6-(3-methyl-2-oxoimidazolin-1-yl)-2-azabicyclo[2.2.1]heptan-2-yl)pyrazin-2-carboxamide]	< 1
CC(C)N1CCN(C2CC3CC2N(c2cnc(C(N)=O)c(Nc4ccc(C5CCN(C6CN(c7ccc8c(c7)C(=O)N(C7CCC(=O)NC7=O)C8=O)C6)CC5)cc4)n2)C3)C1=O (stereo not drawn) [Compound 047, 3-((4-(1-(1-(2-(2,6-dioxopiperidin-3-yl)-1,3-dioxoisoindolin-5-yl)azetidin-3-yl)piperidin-4-yl)phenyl)amino)-5-(-6-(3-isopropyl-2-oxoimidazolin-1-yl)-2-azabicyclo[2.2.1]heptan-2-yl)pyrazin-2-carboxamide]	< 1
CN1CCN(C2CC3CC2N(c2ccc(C(N)=O)c(Nc4ccc(C5CCN(C6CN(c7ccc8c(c7)C(=O)N(C7CCC(=O)NC7=O)C8=O)C6)CC5)cc4)n2)C3)C1=O (stereo not drawn) [Compound 048, 2-((4-(1-(1-(2-(2,6-dioxopiperidin-3-yl)-1,3-dioxoisoindolin-5-yl)azetidin-3-yl)piperidin-4-yl)phenyl)amino)-6-(-6-(3-methyl-2-oxoimidazolin-1-yl)-2-azabicyclo[2.2.1]heptan-2-yl)nicotinamide]	< 1

The remaining lines, values ahead:

DC50 [nM]	SMILES
< 1	NC(=O)c1ncc(N2CCCC(N3CCN(C4COC4)C3=O)C2)nc1Nc1ccc2c(c1)CCN(CC1CCN(c3ccc4c(c3)C(=O)N(C3CCC(=O)NC3=O)C4=O)CC1)C2 (stereo not drawn) [Compound 031, 3-((2-((1-(2-(2,6-dioxopiperidin-3-yl)-1,3-dioxoisoindol-5-yl)piperidin-4-yl)methyl)-1,2,3,4-tetrahydroisoquinolin-6-yl)amino)-5-(3-(3-(oxetan-3-yl)-2-oxoimidazolin-1-yl)piperidin-1-yl)pyrazin-2-carboxamide]
< 1	NC(=O)c1ncc(N2CCCC(N3CCN(C4COC4)C3=O)C2)nc1Nc1ccc2c(c1)CCN(CC1CN(c3ccc4c(c3)C(=O)N(C3CCC(=O)NC3=O)C4=O)C1)C2 (stereo not drawn) [Compound 032, 3-((2-((1-(2-(2,6-dioxopiperidin-3-yl)-1,3-dioxoisoindol-5-yl)azetidine-3-yl)methyl)-1,2,3,4-tetrahydroisoquinolin-6-yl)amino)-5-(3-(3-(oxetan-3-yl)-2-oxyimidazolin-1-yl)piperidin-1-yl)pyrazin-2-carboxamide]
< 1	NC(=O)c1ncc(N2CCCC(N3CCN(C4CCCC4)C3=O)C2)nc1Nc1ccc2c(c1)CCN(CC1CN(c3ccc4c(c3)C(=O)N(C3CCC(=O)NC3=O)C4=O)C1)C2 (stereo not drawn) [Compound 033, 5-(3-(3-cyclopentyl-2-oxoimidazolin-1-yl)piperidin-1-yl)-3-((2-((1-(2-(2,6-dioxopiperidin-3-yl)-1,3-dioxoisoindol-5-yl)azetidin-3-yl)methyl)-1,2,3,4-tetrahydroisoquinolin-6-yl)amino)pyrazin-2-carboxamide]
< 1	N#Cc1cc(Nc2nc(N3CCCC(N4CCN(C5CCCC5)C4=O)C3)cnc2C(N)=O)ccc1C1CCN(CC2CCN(c3ccc4c(c3)C(=O)N(C3CCC(=O)NC3=O)C4=O)C2)CC1 (stereo not drawn) [Compound 042, 3-((3-cyano-4-(1-((1-(2-(2,6-dioxopiperidin-3-yl)-1,3-dioxoisoindolin-5-yl)pyrrolidin-3-yl)methyl)piperidin-4-yl)phenyl)amino)-5-(3-(3-cyclopentyl-2-oxoimidazolin-1-yl)piperidin-1-yl)pyrazin-2-carboxamide]
> 1	NC(=O)c1ncc(N2CCCC(N3CCN(C4CCCC4)C3=O)C2)nc1Nc1ccc(C2CCN(CC3CCN(c4ccc5c(c4)C(=O)N(C4CCC(=O)NC4=O)C5=O)C3)CC2F)cc1 (stereo not drawn) [Compound 043, 5-(3-(3-cyclopentyl-2-oxoimidazolin-1-yl)piperidin-1-yl)-3-((4-(1-((1-(2-(2,6-dioxopiperidin-3-yl)-1,3-dioxoisoindolin-5-yl)pyrrolidin-3-yl)methyl)-3-fluoropiperidin-4-yl)phenyl)amino)pyrazin-2-carboxamide]

Reference: patent US20240360146A1, “BRUTON'S TYROSINE KINASE AND MUTANT DEGRADER, COMPOSITION AND APPLICATION THEREOF” (HANGZHOU HEALZEN THERAPEUTICS CO., LTD., priority 2021, published 2024)
